Measured values as given in ChEMBL document CHEMBL1151600, “6-Bromo-3-nitroflavone, a new high affinity benzodiazepine receptor agonist recognizes two populations of cerebral cortical binding sites” (Bioorg Med Chem Lett, 1997).
The source made the active and inactive calls. No cut-off for these calls is given here.

Tests used:
[1] = target: GABA-A receptor; anion channel; assay: Inhibition of [3H]zolpidem binding to GABA-A Benzodiazepine receptor of synaptosomal membranes from rat cerebellum; format: tissue-based
[2] = system: Mus musculus; assay: Anxiolytic activity in mice at 0.01 to 0.3 mg/kg intraperitoneal administration; format: functional, organism-based
[3] = target: GABA-A receptor; anion channel (Rattus norvegicus) (UniProt O09028+P15431+P18506+P18508+P19969+P20236+P23574+P23576+P28471+P28473+P30191+P62813+P63079+P63138+Q91ZM7+Q9ES14); assay: Inhibition of [3H]flunitrazepam [3H]FNZ) binding to GABA-A benzodiazepine receptor of cortical membranes +/- 100 uM GABA (Partial agonist)
[4] = target: GABA-A receptor; anion channel; assay: Inhibition of [3H]zolpidem binding to GABA-A Benzodiazepine receptor of synaptosomal membranes from rat cerebral cortex; format: tissue-based
[5] = target: GABA-A receptor; anion channel; assay: Inhibition of [3H]flunitrazepam [3H]FNZ) binding to GABA-A Benzodiazepine receptor of synaptosomal membranes from rat cerebellum; format: tissue-based
[6] = target: GABA-A receptor; anion channel; assay: Inhibition of [3H]flunitrazepam [3H]FNZ) binding to GABA-A Benzodiazepine receptor of synaptosomal membranes from rat spinal cord; format: tissue-based
[7] = target: GABA-A receptor; anion channel; assay: Inhibition of [3H]flunitrazepam [3H]FNZ) binding to GABA-A Benzodiazepine receptor of synaptosomal membranes from rat cerebral cortex; format: tissue-based
[8] = target: GABA-A receptor; anion channel; assay: Inhibition of [3H]flunitrazepam [3H]FNZ) binding to GABA-A Benzodiazepine receptor of synaptosomal membranes from rat hippocampus
[9] = target: GABA-A receptor; anion channel; assay: Inhibition of [3H]flunitrazepam [3H]FNZ) binding to GABA-A Benzodiazepine receptor of synaptosomal membranes from rat striatum
[10] = system: Mus musculus; assay: Anxiolytic activity in mice at 100 ug/kg; format: functional

SMILES | Ki [1] [nM] | Anxiolytic affect [2] | GABA shift [3] | Ki [4] [nM] | Ki [5] [nM] | Ki [6] [nM] | Ki [7] [nM] | Ki [8] [nM] | Ki [9] [nM] | Anxiolytic activity [10]
O=c1cc(-c2cccc([N+](=O)[O-])c2)oc2ccc(Br)cc12 | 3 | Active | 1.38 | 3.8 | 3.6 | 12.7 | 1.2 | 9.6 | 9.8 | –
CN1C(=O)CN=C(c2ccccc2)c2cc(Cl)ccc21 [DIAZEPAM] | – | – | – | – | – | – | – | – | – | 35
O=c1cc(-c2ccc([N+](=O)[O-])cc2)oc2ccc(Br)cc12 | – | – | – | – | – | – | 220 | – | – | –
